Entries after “also recorded” stand apart in the source; their conditions may differ.
How the values were obtained:
[1] = system: regenerated sugar beet plants having the mutated SEQ.ID.NO:3 (heterozygote for this mutation); test: Example 3: ALS inhibitor treatment of sugar beets, heterozygote mutant; format: in vivo; settings: for resistance of the (heterozygote) mutated plants to the herbicide: foramsulfuron 12.5 g/ha, amidosulfuron 15 g/ha, iodosulfuron 3.5 g/ha, thiencarbazone-methyl 7.5 g/ha, up to 3 applications
Text: (§1) The behaviour of regenerated sugar beet plants having the mutated SEQ.ID.NO:3 (heterozygote for this mutation) and a wild-type sugar beet commercial variety was compared.

[2] = system: traditional variety (wild-type) sugar beet plant not having a mutation at positions 569 and 188, Line WT; test: Greenhouse trial: ALS inhibitor treatment of sugar beets in direct comparison, Line WT; format: in vivo, Beta vulgaris L. ssp. vulgaris; settings: day 14 after application at BBCH 14; scale 0% no damage to 100% completely killed; g/ha: foramsulfuron 13, iodosulfuron-methyl-Na 3.5, amidosulfuron 15, thiencarbazone-methyl 7.5, Bisbyribac-Na 50, metosulam 15
Description: (§2) Mutated sugar beet plants comprising SEQ.ID.NO:3 and SEQ.ID.NO:5 (on two different alleles) for use in the context of the present invention (as described in Example 4 above, “Line A”) were treated with different ALS inhibitors in direct comparison with sugar beet plants where the tryptophan at position 569 of the encoded ALS enzyme is substituted by a leucine (“Line B”), with sugar beet plants described in WO 98/02527 where the proline at position 188 of the encoded ALS enzyme is substituted by a serine (“Line C”), and a traditional variety (wild-type) sugar beet plant not having a mutation at positions 569 and 188 (“Line WT”).
(§3) Several groups of seeds of the four different mentioned sugar beet plants were sown separately in the greenhouse and grew up to stage BBCH 14 for Beta vulgaris L. ssp. vulgaris (i.e. 4 leaves (the second pair) unfolded) according to the BBCH monograph “Growth stages of mono- and dicotyledonous plants”, 2nd edition, 2001, ed. Uwe Meier, Federal Biological Research Centre for Agriculture and Forestry (Biologische Bundesanstalt für Land and Forstwirtschaft). Subsequently, the resulting separate groups of sugar beet plants were each individually treated with an ALS inhibitor (ALS-in) in the amounts (g/ha) indicated in Table 1.
(§4) On day 14 after application of the respective ALS inhibitor, the damage (i.e. the phytotoxicity) for each group of sugar beet plants was rated on a stratified scale from 0% (i.e. no damage, no phytotoxicity) to 100% (i.e. the plants were completely killed).

[3] = system: mutated sugar beet plants comprising SEQ.ID.NO:3 and SEQ.ID.NO:5 (on two different alleles), Line A; test: Greenhouse trial: ALS inhibitor treatment of sugar beets in direct comparison, Line A; format: in vivo, Beta vulgaris L. ssp. vulgaris; settings: day 14 after application at BBCH 14; scale 0% no damage to 100% completely killed; g/ha: foramsulfuron 13, iodosulfuron-methyl-Na 3.5, amidosulfuron 15, thiencarbazone-methyl 7.5, Bisbyribac-Na 50, metosulam 15
Description: as §2, §3, §4

[4] = system: wild-type sugar beet commercial variety; test: Example 3: ALS inhibitor treatment of sugar beets, wild type; format: in vivo; settings: foramsulfuron 12.5 g/ha, amidosulfuron 15 g/ha, iodosulfuron 3.5 g/ha, thiencarbazone-methyl 7.5 g/ha; with or without rapeseed oil methyl ester
Text: as §1

[5] = system: sugar beet plants where the proline at position 188 of the encoded ALS enzyme is substituted by a serine, Line C; test: Greenhouse trial: ALS inhibitor treatment of sugar beets in direct comparison, Line C; format: in vivo, Beta vulgaris L. ssp. vulgaris; settings: day 14 after application at BBCH 14; scale 0% no damage to 100% completely killed; g/ha: foramsulfuron 13, iodosulfuron-methyl-Na 3.5, amidosulfuron 15, thiencarbazone-methyl 7.5, Bisbyribac-Na 50, metosulam 15
Description: as §2, §3, §4

[6] = system: sugar beet plants where the tryptophan at position 569 of the encoded ALS enzyme is substituted by a leucine, Line B; test: Greenhouse trial: ALS inhibitor treatment of sugar beets in direct comparison, Line B; format: in vivo, Beta vulgaris L. ssp. vulgaris; settings: day 14 after application at BBCH 14; scale 0% no damage to 100% completely killed; g/ha: foramsulfuron 13, iodosulfuron-methyl-Na 3.5, amidosulfuron 15, thiencarbazone-methyl 7.5, Bisbyribac-Na 50, metosulam 15
Description: as §2, §3, §4

[7] = system: dual mutant sugar beet plant comprising SEQ.ID.NO:3 and SEQ.ID.NO:5 (NCIMB 42050); test: Example 4: ALS inhibitor treatment of sugar beets having further mutations in the ALS gene; format: in vivo; settings: compared with the single mutant (position 569); even when put in composition with organic compounds
Text: Subsequently, a mutated sugar beet plant was developed comprising SEQ.ID.NO:3 and SEQ.ID.NO:5 (on two different alleles). Such resulting dual mutant has been deposited under the Budapest Treaty under NCIMB 42050. A plant comprising both SEQ.ID.NO:3 and SEQ.ID.NO:5 can be generated by relying on several techniques, including, for instance, a subsequent mutagenesis step applied to the single mutant NCIMB 42051.
Then the resistance of this dual mutant plant (a mutation in one allele at amino acid 569 and a mutation in the other allele at amino acid 188) was compared with the single mutant (a mutation at position 569) sugar beet.

| Compound | resistance of the (heterozygote) mutated plants to the herbicide [1] | damage (phytotoxicity), average rating, Line WT [2] | damage (phytotoxicity), average rating, Line A [3] | sensitivity of the wild-type plant to the herbicide [4] | damage (phytotoxicity), average rating, Line C [5] | damage (phytotoxicity), average rating, Line B [6] | resistance of the dual mutant plant to the herbicide [7] | resistance of the (heterozygote) mutated plants, herbicide applied together with the organic compound ([1]; iodosulfuron 3.5 g/ha with 25 g/ha rapeseed oil methyl ester) |
| --- | --- | --- | --- | --- | --- | --- | --- | --- |
| COc1cc(OC)nc(NC(=O)NS(=O)(=O)N(C)S(C)(=O)=O)n1 [Amidosulfuron, amidosulfuron] | same level of resistance | 73.1% | 6.3% | very sensitive | 51.9% | 37.5% | good resistance |  |
| COc1cc(OC)nc(Oc2cccc(Oc3nc(OC)cc(OC)n3)c2C(=O)O)n1 [Bisbyribac-Na, bispyribac-sodium] |  | 80.0% | 17.5% |  | 71.7% | 38.1% |  |  |
| COc1cc(OC)nc(NC(=O)NS(=O)(=O)c2cc(NC=O)ccc2C(=O)N(C)C)n1 [Foramsulfuron, foramsulfuron] | good resistance; also recorded: best resistance | 80.0% | 26.9% | very sensitive | 77.5% | 45.6% |  |  |
| COC(=O)c1ccc(I)cc1S(=O)(=O)[N-]C(=O)Nc1nc(C)nc(OC)n1.[Na+] [Iodosulfuron-methyl-Na, iodosulfuron-methyl-sodium] |  | 82.5% | 22.5% |  | 80.0% | 38.8% |  |  |
| COc1cc(OC)n2nc(S(=O)(=O)Nc3c(Cl)ccc(C)c3Cl)nc2n1 [Metosulam, metosulam] |  | 79.4% | 13.1% |  | 69.4% | 40.6% |  |  |
| COC(=O)c1csc(C)c1S(=O)(=O)NC(=O)n1nc(OC)n(C)c1=O [Thiencarbazone-methyl, thiencarbazone-methyl] | about the same level of resistance as for iodosulfuron | 84.4% | 8.1% | very sensitive | 37.5% | 35.6% | good resistance |  |
| COc1nc(C)nc(NC(=O)NS(=O)(=O)c2cc(I)ccc2C(=O)O)n1 [iodosulfuron] | good level of resistance |  |  | very sensitive |  |  |  | resistance declined |
